Experiment: Stability test of coated BHB free acid crystal pellets/granules vs BHB free acid crystal at 25° C./60% RH (moisture and dipolymer content)
Type: physicochemical
Protocol: The coated BHB free acid crystal pellets/granules were subjected to a controlled temperature of 25° C./60% RH. The products were subjected to stability testing at the following time intervals: 0 time, 3 months, 6 months, 9 months, and 12 months.
The preparation method of such coated BHB free acid crystal pellets/granules includes the following steps: • (1) Wet granulation: Mix 3 kg of BHB free acid crystals and 0.05 kg of microcrystalline fiber, add 0.06 kg of water for wet granulation to obtain wet materials. The stirring motor rotating speed of the wet granulator is adjusted to 45 r/min, the speed of the shearing head is 800 r/min and the feeding speed of the binder is 5 r/min; • (2) Extrusion: Extrude the wet material obtained in step (1) by the extruder with the sieve plate aperture of 0.8 mm, to obtain strip materials with the same diameter. The screw speed of the extruder is adjusted to 150 r/min. […] Obtain strip materials with the same diameter; • (3) Spheronization: Sphere the strip materials obtained in step (2) at the high speed through the spheronization device to get pellets/granules of the same size and good roundness. The rotation speed of the spheronization device is adjusted to 1000 r/min and the time of spheronization is 6 min; • (4) Drying: Dry the pellets/granules prepared in step (3) to get BHB free acid crystal pellets/granules. The drying temperature is adjusted to 35° C. and the drying time is 25 min; • (5) Coating: Coating the BHB free acid crystal pellets/granules prepared in step (4) by Wurster coater with coating material, which is dissolved in water or ethanol at a solid content of 20% for use. The air inlet speed of the Wurster coater is 25 Hz and the coating temperature is 38° C., and the feeding speed of the coating liquid is 2 r/min. Drying for 15 min after coating is completed to obtain the coated BHB free acid crystal.The coated BHB free acid crystal pellets/granules were subjected to a controlled temperature of 25° C./60% RH. The products were subjected to stability testing at the following time intervals: 0 time, 3 months, 6 months, 9 months, and 12 months.

## CC(O)CC(=O)O (stereo not drawn) [BHB Free Acid Crystal, beta hydroxybutyric acid]
0 time
  Dipolymer Content: 0.38%
  Moisture Content: 0.50%
3 months
  Dipolymer Content: 1.42%
  Moisture Content: 2.14%
6 months
  Dipolymer Content: 4.29%
  Moisture Content: 10.63%
9 months
  Dipolymer Content: 10.65%
  Moisture Content: 18.16%
12 months
  Dipolymer Content: 29.07%
  Moisture Content: 29.97%
